Three compounds from ChEMBL document CHEMBL1944561, “Discovery and SAR exploration of a novel series of imidazo[4,5-b]pyrazin-2-ones as potent and selective mTOR kinase inhibitors” (Bioorg Med Chem Lett, 2011) can be followed below.

Experiment [1] addresses Dual specificity mitogen-activated protein kinase kinase 1 (Homo sapiens) (UniProt Q02750). The experiment can be described thus: Inhibition of MEK1 assessed as activity remaining at 10 uM.
Experiment [2] concerns the target T1, Cytoplasmic tyrosine-protein kinase BMX (Homo sapiens) (UniProt P51813).
T1 sequence (whole entry): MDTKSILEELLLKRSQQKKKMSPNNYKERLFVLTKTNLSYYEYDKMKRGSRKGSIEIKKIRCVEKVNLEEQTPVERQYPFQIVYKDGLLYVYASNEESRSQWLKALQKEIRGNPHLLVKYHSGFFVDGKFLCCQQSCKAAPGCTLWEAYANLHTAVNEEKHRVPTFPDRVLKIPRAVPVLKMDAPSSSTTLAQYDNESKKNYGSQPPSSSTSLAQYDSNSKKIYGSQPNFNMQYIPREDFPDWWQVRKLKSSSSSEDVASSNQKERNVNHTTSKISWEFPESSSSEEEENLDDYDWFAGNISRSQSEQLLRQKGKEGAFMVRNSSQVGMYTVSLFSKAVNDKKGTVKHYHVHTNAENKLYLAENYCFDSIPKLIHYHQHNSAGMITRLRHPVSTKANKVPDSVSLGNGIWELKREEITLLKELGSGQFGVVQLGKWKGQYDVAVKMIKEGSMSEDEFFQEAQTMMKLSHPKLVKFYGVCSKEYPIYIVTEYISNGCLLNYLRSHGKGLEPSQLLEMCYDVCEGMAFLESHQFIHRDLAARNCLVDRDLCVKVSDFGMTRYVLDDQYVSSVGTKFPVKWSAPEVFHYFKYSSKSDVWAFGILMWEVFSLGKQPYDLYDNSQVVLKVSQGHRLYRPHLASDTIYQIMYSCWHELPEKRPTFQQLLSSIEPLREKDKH
The experiment can be described thus: Inhibition of Bmx assessed as activity remaining at 10 uM.

The target in experiment [3] is Cyclin-dependent kinase 2 (Homo sapiens) (UniProt P24941). In words: Inhibition of CDK2 assessed as activity remaining at 10 uM.
Experiment [4] addresses Macrophage colony-stimulating factor 1 receptor (Homo sapiens) (UniProt P07333). The experiment can be described thus: Inhibition of Fms assessed as activity remaining at 10 uM.
Experiment [5] has as its target 3-phosphoinositide-dependent protein kinase 1 (Homo sapiens) (UniProt O15530). In words: Inhibition of PDK1 assessed as activity remaining at 10 uM.
Experiment [6] has as its target Hepatocyte growth factor receptor (Homo sapiens) (UniProt P08581). In words: Inhibition of Met assessed as activity remaining at 10 uM.
For experiment [7], the target named is Mitogen-activated protein kinase kinase kinase 9 (Homo sapiens) (UniProt P80192). In words: Inhibition of MLK1 assessed as activity remaining at 10 uM.
In experiment [8] the target is Protein kinase C theta type (Homo sapiens) (UniProt Q04759). In words: Inhibition of PKC-theta assessed as activity remaining at 10 uM.
Experiment [9] has as its target Proto-oncogene tyrosine-protein kinase receptor Ret (Homo sapiens) (UniProt P07949). In words: Inhibition of Ret assessed as activity remaining at 10 uM.
Experiment [10] has as its target Platelet-derived growth factor receptor alpha (Homo sapiens) (UniProt P16234). In words: Inhibition of PDGFRalpha assessed as activity remaining at 10 uM.
The target in experiment [11] is Tyrosine-protein kinase ABL1 (Homo sapiens) (UniProt P00519). The experiment can be described thus: Inhibition of Abl assessed as activity remaining at 10 uM.
For experiment [12], the target named is SRSF protein kinase 3 (Homo sapiens) (UniProt Q9UPE1). The experiment can be described thus: Inhibition of MSSK1 assessed as activity remaining at 10 uM.
For experiment [13], the target named is T2, Ephrin type-B receptor 4 (Homo sapiens) (UniProt P54760).
T2 sequence (whole entry): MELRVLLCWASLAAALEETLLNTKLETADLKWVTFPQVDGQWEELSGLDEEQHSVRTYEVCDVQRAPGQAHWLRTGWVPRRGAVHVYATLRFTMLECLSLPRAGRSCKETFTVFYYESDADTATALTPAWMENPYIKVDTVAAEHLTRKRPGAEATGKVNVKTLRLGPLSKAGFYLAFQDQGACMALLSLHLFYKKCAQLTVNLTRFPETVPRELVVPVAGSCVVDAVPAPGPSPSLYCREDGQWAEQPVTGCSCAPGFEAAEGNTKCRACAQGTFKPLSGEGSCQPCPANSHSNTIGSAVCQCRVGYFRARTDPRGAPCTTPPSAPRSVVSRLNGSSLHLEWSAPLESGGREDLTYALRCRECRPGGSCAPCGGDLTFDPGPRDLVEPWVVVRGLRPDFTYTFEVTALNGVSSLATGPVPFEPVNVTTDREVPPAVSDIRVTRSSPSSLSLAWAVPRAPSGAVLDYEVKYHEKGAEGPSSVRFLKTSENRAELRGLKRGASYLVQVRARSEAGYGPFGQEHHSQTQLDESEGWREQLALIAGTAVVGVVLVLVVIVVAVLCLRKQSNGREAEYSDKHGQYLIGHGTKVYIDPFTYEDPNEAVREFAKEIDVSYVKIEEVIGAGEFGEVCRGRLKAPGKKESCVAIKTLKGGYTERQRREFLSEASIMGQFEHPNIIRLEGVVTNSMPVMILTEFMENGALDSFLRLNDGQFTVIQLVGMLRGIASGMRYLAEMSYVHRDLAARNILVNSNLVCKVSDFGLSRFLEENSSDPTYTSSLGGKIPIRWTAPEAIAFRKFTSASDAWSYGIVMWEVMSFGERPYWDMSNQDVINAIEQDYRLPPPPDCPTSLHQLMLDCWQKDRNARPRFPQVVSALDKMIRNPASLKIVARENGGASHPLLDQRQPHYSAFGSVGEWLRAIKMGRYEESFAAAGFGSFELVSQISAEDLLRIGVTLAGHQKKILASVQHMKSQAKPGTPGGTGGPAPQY
The experiment can be described thus: Inhibition of EphB4 assessed as activity remaining at 10 uM.

The target in experiment [14] is High affinity nerve growth factor receptor (Homo sapiens) (UniProt P04629). In words: Inhibition of TrkA assessed as activity remaining at 10 uM.
The target in experiment [15] is Protein kinase C alpha type (Homo sapiens) (UniProt P17252). In words: Inhibition of PKC-alpha assessed as activity remaining at 10 uM.
The target of experiment [16] is Mitogen-activated protein kinase 9 (Homo sapiens) (UniProt P45984). The experiment can be described thus: Inhibition of JNK2alpha2 assessed as activity remaining at 10 uM.

Sequence of Mitogen-activated protein kinase kinase kinase 9 (Homo sapiens) (P80192 whole entry, looked up): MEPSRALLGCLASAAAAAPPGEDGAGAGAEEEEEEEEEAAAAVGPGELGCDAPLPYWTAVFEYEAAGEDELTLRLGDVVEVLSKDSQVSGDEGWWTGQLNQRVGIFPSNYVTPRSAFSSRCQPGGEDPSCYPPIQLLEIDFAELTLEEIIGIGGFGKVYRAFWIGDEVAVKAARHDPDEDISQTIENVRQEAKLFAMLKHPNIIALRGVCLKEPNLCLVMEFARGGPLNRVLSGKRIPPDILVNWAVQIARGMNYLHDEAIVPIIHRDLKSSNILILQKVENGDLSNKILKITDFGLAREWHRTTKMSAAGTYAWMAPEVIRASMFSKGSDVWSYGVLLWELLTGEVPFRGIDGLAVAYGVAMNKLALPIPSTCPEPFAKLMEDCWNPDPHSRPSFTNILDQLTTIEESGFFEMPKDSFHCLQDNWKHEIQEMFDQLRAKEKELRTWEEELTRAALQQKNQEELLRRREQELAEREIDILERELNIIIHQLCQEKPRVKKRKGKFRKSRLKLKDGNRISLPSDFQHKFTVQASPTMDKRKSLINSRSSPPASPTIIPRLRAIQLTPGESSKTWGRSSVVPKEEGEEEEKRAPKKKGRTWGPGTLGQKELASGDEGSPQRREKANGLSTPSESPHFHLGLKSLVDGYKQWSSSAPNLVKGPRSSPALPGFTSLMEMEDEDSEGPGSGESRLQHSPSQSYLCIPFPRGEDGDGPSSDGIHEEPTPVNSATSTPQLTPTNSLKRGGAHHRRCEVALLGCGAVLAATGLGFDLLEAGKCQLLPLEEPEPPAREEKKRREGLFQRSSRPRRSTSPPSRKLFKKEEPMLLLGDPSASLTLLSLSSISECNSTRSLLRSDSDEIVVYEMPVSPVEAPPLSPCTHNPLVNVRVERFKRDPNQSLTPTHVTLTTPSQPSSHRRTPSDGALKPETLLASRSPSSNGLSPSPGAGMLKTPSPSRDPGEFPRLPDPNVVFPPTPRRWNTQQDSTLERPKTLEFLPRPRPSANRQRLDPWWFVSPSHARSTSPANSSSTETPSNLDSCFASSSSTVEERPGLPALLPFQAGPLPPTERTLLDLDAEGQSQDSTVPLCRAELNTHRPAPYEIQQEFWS
Sequence of High affinity nerve growth factor receptor (Homo sapiens) (P04629 33-796 limits assumed): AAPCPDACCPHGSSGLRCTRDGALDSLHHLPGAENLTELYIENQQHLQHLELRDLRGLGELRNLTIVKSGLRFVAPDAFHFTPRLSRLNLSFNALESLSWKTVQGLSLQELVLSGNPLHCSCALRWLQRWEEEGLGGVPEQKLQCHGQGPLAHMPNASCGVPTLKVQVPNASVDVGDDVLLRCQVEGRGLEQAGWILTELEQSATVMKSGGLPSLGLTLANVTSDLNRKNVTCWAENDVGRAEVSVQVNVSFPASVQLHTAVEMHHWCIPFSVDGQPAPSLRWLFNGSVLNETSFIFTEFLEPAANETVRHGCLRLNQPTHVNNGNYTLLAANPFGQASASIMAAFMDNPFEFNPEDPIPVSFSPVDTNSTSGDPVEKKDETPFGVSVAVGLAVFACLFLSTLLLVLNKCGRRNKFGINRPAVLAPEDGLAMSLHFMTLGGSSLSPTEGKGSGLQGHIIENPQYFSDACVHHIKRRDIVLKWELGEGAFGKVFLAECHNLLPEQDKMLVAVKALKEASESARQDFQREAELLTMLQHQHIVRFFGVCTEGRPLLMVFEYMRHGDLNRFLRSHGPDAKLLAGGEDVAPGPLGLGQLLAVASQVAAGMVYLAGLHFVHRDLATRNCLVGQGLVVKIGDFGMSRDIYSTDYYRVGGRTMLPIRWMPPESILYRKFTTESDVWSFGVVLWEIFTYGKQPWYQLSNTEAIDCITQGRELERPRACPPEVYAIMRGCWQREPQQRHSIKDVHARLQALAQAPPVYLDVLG
Sequence of Dual specificity mitogen-activated protein kinase kinase 1 (Homo sapiens) (Q02750 whole entry): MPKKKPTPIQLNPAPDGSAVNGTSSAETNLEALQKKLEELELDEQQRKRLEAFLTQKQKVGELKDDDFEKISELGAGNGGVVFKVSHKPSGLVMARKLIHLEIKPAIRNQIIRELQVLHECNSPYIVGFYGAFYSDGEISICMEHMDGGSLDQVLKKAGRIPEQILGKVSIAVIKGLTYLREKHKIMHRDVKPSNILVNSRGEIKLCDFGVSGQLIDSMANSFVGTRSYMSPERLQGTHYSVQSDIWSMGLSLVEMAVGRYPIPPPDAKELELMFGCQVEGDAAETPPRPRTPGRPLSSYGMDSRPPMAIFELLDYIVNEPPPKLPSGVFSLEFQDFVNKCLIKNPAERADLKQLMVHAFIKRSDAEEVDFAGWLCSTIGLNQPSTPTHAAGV
Sequence of Protein kinase C theta type (Homo sapiens) (Q04759 whole entry, looked up): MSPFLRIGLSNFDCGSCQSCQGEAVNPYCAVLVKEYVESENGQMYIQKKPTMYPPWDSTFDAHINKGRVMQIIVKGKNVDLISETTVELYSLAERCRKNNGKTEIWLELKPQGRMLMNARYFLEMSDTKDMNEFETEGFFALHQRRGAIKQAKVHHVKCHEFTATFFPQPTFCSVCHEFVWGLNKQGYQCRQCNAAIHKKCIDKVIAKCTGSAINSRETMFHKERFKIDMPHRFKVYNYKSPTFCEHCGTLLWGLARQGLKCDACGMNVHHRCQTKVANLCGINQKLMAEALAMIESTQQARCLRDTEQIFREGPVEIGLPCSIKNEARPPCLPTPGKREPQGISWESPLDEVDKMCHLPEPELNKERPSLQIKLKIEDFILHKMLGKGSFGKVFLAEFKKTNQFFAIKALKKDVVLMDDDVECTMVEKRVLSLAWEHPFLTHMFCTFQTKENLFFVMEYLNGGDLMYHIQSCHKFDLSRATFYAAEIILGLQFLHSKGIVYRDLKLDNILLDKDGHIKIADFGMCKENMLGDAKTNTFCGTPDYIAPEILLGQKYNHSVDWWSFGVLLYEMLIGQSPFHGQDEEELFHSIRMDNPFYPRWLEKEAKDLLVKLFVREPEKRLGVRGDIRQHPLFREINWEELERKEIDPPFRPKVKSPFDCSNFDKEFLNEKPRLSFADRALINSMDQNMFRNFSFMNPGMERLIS
Sequence of Macrophage colony-stimulating factor 1 receptor (Homo sapiens) (P07333 whole entry): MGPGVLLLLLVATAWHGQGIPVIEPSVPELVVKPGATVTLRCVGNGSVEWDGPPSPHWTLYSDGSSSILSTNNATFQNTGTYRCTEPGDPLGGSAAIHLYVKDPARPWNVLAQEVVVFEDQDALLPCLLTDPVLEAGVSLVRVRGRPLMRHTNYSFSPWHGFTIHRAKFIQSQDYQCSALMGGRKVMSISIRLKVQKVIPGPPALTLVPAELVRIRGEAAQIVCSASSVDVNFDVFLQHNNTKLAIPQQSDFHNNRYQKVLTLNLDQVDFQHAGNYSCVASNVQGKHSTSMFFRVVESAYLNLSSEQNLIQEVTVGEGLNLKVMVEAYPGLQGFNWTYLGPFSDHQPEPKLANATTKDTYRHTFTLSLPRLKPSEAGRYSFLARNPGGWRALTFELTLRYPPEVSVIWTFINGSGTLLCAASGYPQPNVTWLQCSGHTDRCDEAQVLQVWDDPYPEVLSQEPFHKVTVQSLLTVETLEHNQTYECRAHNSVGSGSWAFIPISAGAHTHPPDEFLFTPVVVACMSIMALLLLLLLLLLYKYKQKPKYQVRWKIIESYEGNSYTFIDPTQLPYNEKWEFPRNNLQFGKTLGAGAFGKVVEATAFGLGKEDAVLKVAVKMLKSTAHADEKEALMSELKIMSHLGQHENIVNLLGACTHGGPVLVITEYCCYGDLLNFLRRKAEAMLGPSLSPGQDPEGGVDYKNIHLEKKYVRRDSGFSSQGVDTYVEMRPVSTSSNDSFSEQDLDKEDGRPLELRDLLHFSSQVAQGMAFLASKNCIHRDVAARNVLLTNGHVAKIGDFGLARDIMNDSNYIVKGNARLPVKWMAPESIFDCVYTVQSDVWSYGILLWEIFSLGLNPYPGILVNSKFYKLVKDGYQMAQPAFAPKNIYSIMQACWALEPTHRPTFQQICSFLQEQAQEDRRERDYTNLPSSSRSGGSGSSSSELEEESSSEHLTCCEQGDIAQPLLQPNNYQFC
Sequence of Platelet-derived growth factor receptor alpha (Homo sapiens) (P16234 whole entry): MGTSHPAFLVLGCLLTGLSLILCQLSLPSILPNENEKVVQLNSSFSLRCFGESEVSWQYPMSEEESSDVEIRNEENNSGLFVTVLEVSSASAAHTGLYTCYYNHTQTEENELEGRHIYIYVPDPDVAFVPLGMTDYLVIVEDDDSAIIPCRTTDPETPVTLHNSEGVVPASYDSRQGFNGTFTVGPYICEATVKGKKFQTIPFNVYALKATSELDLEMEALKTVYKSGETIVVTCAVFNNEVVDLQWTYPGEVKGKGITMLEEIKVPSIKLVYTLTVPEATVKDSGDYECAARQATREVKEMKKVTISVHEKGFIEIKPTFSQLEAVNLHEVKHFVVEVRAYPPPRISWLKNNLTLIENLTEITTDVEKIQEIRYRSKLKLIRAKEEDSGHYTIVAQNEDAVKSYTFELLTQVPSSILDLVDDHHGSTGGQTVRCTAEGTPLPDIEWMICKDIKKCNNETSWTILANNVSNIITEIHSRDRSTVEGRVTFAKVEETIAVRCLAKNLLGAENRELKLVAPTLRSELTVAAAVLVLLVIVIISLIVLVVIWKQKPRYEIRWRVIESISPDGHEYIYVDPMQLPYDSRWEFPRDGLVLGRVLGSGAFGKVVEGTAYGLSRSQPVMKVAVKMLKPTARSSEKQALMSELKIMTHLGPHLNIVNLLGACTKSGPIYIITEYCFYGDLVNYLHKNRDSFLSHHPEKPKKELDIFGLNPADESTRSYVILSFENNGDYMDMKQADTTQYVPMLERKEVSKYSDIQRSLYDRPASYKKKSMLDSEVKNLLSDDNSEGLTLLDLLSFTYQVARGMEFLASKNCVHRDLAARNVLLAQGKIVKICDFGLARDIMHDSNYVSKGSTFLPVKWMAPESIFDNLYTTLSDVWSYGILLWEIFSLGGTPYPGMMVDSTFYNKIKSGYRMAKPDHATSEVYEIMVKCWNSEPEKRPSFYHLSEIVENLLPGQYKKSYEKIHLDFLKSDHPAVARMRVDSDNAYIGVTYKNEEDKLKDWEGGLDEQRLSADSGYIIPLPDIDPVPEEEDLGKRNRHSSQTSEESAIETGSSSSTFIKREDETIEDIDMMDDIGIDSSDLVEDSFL

For the compound `CC(C)(O)c1ccc(-c2cnc3[nH]c(=O)n(CC4CCCCC4)c3n2)cc1`, the Activity worked out at 82% in experiment [1]; 85% in experiment [2]; 81% in experiment [3]; 26% in [4]; 92% in [5]; 94% in experiment [6]. Further, the Activity was found to be 80% in [7]; 80% in experiment [8]; 77% in [9]; 93% in [10]; 53% in experiment [11]; 89% in experiment [12]. The Activity in experiment [13] amounted to 90%; in [14] it was 86%; in experiment [15], 83%; in experiment [16], 110%.

Regarding `O=c1[nH]c2ncc(-c3ccc4[nH]cnc4c3)nc2n1CC1CCCCC1`, the Activity in experiment [1] came to 79%; in experiment [2] it was 92%; in [3], 81%; in [4], 23%; in experiment [5] it was 65%; in [6] it was 66%. The Activity in [7] was 49%; in [8], 73%; in experiment [9], 80%; in experiment [10], 85%; in experiment [11], 23%; in [12], 91%. In addition, the Activity came to 96% in [13], 61% in experiment [14], 82% in [15] and 85% in experiment [16].

Take `O=c1[nH]c2ncc(-c3ccc(-c4nc[nH]n4)cc3)nc2n1CC1CCOCC1`: the Activity in experiment [1] turned out to be 84%; in experiment [2] it was 93%; in [3] it was 90%; in experiment [4], 37%; in experiment [5], 91%; in experiment [6], 92%. Also, the Activity in experiment [7] was 86%; in experiment [8], 82%; in experiment [9], 84%; in experiment [10], 94%; in experiment [11] it was 83%; in experiment [12], 93%. For the same compound, the Activity in experiment [13] stood at 97%; in experiment [14], 77%; in experiment [15] it was 86%; in experiment [16], 79%.
